The subject of experiment [1] is mice. In words: Protein in urine after in vivo gene delivery of dynamin mutants into healthy mice (Bradford). On the set-up: species or system mouse. Conditions: for Protein in the urine: Table 2A, gene delivery into mice. As to the method:
Next, the level of urinary protein loss following gene delivery of dynamin mutants was examined (Table 2). […] The expression of K44A was associated with severe proteinuria (1.18 mg/ml) at peak gene expression time of 10 hours post injection. The reduction in gene expression was paralleled by a reduction in proteinuria (0.77 mg/ml). Gene transfer of dynR725A caused an increase in proteinuria (0.58 mg/ml). Although this was not a significant increase, it is probable that it is a consequence of the partial podocyte FP effacement seen after gene transfer of dynR725A, and due to increase in the stress fibers formation observed in cultured podocytes.
To explore whether functional dynamin is required for the maintenance of FP morphology in healthy kidneys, it was examined whether expression of dominant negative dynK44A disrupts podocyte function. […] In contrast, podocin driven expression of dynK44A, the dynamin mutant that cannot bind GTP, caused FP effacement (FIG. 21B) and proteinuria (1.1±0.26 mg/ml) at the peak of gene expression […] after gene delivery (FIGS. 21D and 25C). […] In other words, tight regulation of the life-time of the GTP-bound form of dynamin appears to be required for normal FP morphology and ultrafiltration.
CatL plasmids encoding short and long CatL (Goulet et al., Biol Chem 387, 1285-1293 (2004)), Dyn1 plasmids (pcDNA-driven) or p2.5 Podocin-driven (Moeller et al., Genesis 35, 39-42 (2003)) were introduced into mice (n>10, each construct) using the TransIT in vivo gene delivery system according to the manufacturer's instruction (Mirus Bio Corporation, Madison, Wis.). 10 and 24 h after gene delivery, proteinuria was assessed by Multistix 8 SG strips (Bayer Corporation, Elkhart, Ind.), and Bradford protein assay (Sigma, Saint Louis, Mo.). From the same urines the protein creatinine ratio was determined with Albuwell M and Creatinine Companion protein creatinine ELISA kits (Exocell Inc., Philadelphia, Pa.).

Experiment [2] relates to LPS induced mouse proteinuria model. The experiment in a line: LPS induced mouse proteinuria model, protein in urine (prevention and reversal by dynamin gene delivery). It counts as in vivo. As to the method:
Next, it was examined whether gene transfer of dynR725A and dynL356Q, G358V was able to protect from LPS induced changes of podocyte FP and thus proteinuria (FIGS. 6A-B); (Table 2B). […] Whereas the application of wildtype dynamin was unable to protect from LPS induced podocyte FP effacement (data not shown) and proteinuria (0.63 mg/ml after 24 hours, p<0.05 and 1.18 mg/ml after 48 hours, p<0.04); table 2B, the co-administration of R725A together with LPS completely abolished the development of proteinuria after 24 hours (0.20 mg/ml). Podocyte FPs remained normal at this timepoint (FIG. 6B). The decline of R725A expression in podocytes was then associated with the development of proteinuria (1.25 mg/ml, 48 h). At this time point, there was noticeable podocyte FP effacement. The application of the cathepsin L resistant dynamin mutant L356Q, G358V together with LPS conferred a partial protection from proteinuria (0.47 mg/ml, P<0.05). This protection was associated with normal appearing podocyte FP (FIG. 6C). Although this protection was not as strong as the one provided by dynR725A, it was prolonged and was still present even after the second dose of LPS ([…], P<0.04). This observation argues that lower expression levels of dynL356Q, G358V are required to protect from LPS induced FP effacement but the presence of dynR725A has the most powerful protection.
Another set of experiments was carried out to study whether dynR725A and dynL356Q, G358V are also useful once there is already established podocyte damage and proteinuria (reversal experiments), (FIGS. 6C, D); (Table 2C). First LPS was injected in mice at 0 and 24 hours and the course of urinary protein loss was documented. On the peak phase of proteinuria at 48 hours after the first LPS injection, either delivery solution (control), dynR725A or dynL356Q, G358V dynamin mutants were transferred and the morphology of podocyte FP was analyzed and the degree of proteinuria was determined 10 hours later when there was strong expression of the transferred gene in podocytes. […] A dramatic reformation of podocyte FPs was also observed (FIG. 6C). The same observation was true for L356Q, G358V (FIG. 6D) which was able to reduce proteinuria from 1.20 mg/ml to 0.71 mg/ml). From the in vitro data it was determined that R725A starts to self assemble into higher order structures in the LPS setting which render dynamin assembly domain protected from cathepsin L cleavage. […] In addition, dominant activating dynR725A proves useful because despite causing podocyte damage in wildtype mice, it can resist cathepsin L cleavage by self assembly in the LPS setting and have strong activity by impairment in its GTP hydrolysis.
If dynamin is a target of CatL, then dynL356Q and dynR725A, which are resistant to CatL cleavage, might protect kidneys from LPS. In control mice, two injections of LPS led to FP effacement (FIG. 21C) and a large increase in proteinuria (FIG. 21E, Con).
Next it was examined whether dynL356Q and dynR725A can reverse already established proteinuria. LPS was injected into mice at 0 and 24 hours. At the peak of proteinuria at 48 hours, mice were injected with dynWT, dynL356Q, or dynR725A, and the degree of proteinuria was analyzed 12 hours post injection. […] The rescue could be achieved with both podocin and CMV-driven protein expression.
All animal studies were approved by the MGH Subcommittee for Research Animal Care. C57BL6 mice were obtained from Jackson Laboratory (Bar Harbor, Me.). CatL−/− mice are in a pure C57BL6 background (Nakagawa et al., Science 280, 450-453 (1998)). LPS induced mouse proteinuria model was utilized as previously described (Reiser et al., J Clin Invest 113, 1390-1397 (2004)). Rat PAN nephrosis model was induced by a single intravenous injection of PAN (180 mg/kg body wt; Sigma-Aldrich, St. Louis, Mo.) (Kim et al., Am J Physiol Renal Physiol 286, F922-935 (2004)). […]

As for “dynWT: wild type dynamin overexpressed by adenovirus or delivered as dynamin 1 cDNA”, the “Protein in the urine” value in experiment [1] (t = 0) turned out to be 0.27 ± 0.06 mg/mL; in experiment [1] (t = 10 h) it was 0.37 ± 0.08 mg/mL; in experiment [1] (t = 24 h) it was 0.42 ± 0.12 mg/mL; in experiment [2] (Table 2B Prevention, 2xLPS, t = 0), 0.28 ± 0.07 mg/mL; in experiment [2] (Table 2B Prevention, 2xLPS, t = 10 h), 0.27 ± 0.07 mg/mL; in experiment [2] (Table 2B Prevention, 2xLPS, t = 24 h, listed as Dyn WT), 0.63 ± 0.12 mg/mL. The “Protein in the urine” value worked out at 0.63 mg/mL in experiment [2] (Table 2B Prevention, 2xLPS, t = 24 h, listed as wildtype dynamin); 1.18 ± 0.23 mg/mL in experiment [2] (Table 2B Prevention, 2xLPS, t = 48 h, listed as Dyn WT); 1.18 mg/mL in experiment [2] (Table 2B Prevention, 2xLPS, t = 48 h, listed as wildtype dynamin); 0.30 ± 0.10 mg/mL in experiment [2] (Table 2C Reversal, LPS at 0 and 24 h, t = 0); 1.17 ± 0.18 mg/mL in experiment [2] (Table 2C Reversal, t = 48 h, at gene transfer, listed as Dyn WT); 1.26 mg/mL in experiment [2] (Table 2C Reversal, t = 48 h, at gene transfer, listed as wildtype dynamin). For the same substance, the “Protein in the urine” value in experiment [2] (Table 2C Reversal, t = 58 h, 10 hours after gene transfer, listed as Dyn WT) was 1.10 ± 0.17 mg/mL; in experiment [2] (Table 2C Reversal, t = 58 h, 10 hours after gene transfer, listed as wildtype dynamin), 1.32 mg/mL. In addition, the “proteinuria after gene delivery, in words” value in experiment [1] (healthy mice) is listed as “did not lead to increase of the protein in urine”. Further, in experiment [2] (gene delivery immediately before LPS injection), the “protection from LPS-induced proteinuria, in words” value is recorded as “did not protect against these changes”. In addition, the “reversal of established proteinuria, in words” value in experiment [2] (injected at 48 hours, analyzed 12 hours post injection) was “did not reduce proteinuria”.

The values above are taken from US9144594B2, “Cathepsin L mediated diseases and associated methods and products” (University of Miami, priority 2005, dated 2015).
